According to patent publication US20110178053A1, “AZACARBOLINE DERIVATIVES, PREPARATION METHOD THEREOF AND THERAPEUTIC USE OF SAME” (SANOFI-AVENTIS, priority 2008, published 2011):

Experiments:
Pim-1 = target: T1, Pim-1 (Homo sapiens, UniProt P11309); test: TR-FRET assay, Pim-1 kinase (phosphorylation of Bad Ser112); format: biochemical; settings: TR-FRET; ATP 40 μM; read-out: IC50 Pim1
T1 construct: His6-labelled recombinant full-length human Pim-1, Pim-2 or Pim-3 protein; His6; made in house
Outline: (§1)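 Recombinant His6-tagged full-length human Pim-1, Pim-2 or Pim-3 phosphorylates His6-tagged full-length human Bad at 40 μM ATP (apparent KM). Phospho-Ser112 is detected by TR-FRET between Eu-labelled anti-phosphoBad and APC-labelled anti-His6 (665/615 nm ratio); 10-point duplicate series, top typically 30 μM, IC50 from 4-parameter logistic fit.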

Pim-2 = target: T2, Pim-2 (Homo sapiens, UniProt Q9P1W9); test: TR-FRET assay, Pim-2 kinase (phosphorylation of Bad Ser112); format: biochemical; settings: TR-FRET; ATP 40 μM; read-out: IC50 Pim2
T2 construct: His6-labelled recombinant full-length human Pim-1, Pim-2 or Pim-3 protein; His6; made in house
Outline: as §1

Pim-3 = target: T3, Pim-3 (Homo sapiens, UniProt Q86V86); test: TR-FRET assay, Pim-3 kinase (phosphorylation of Bad Ser112); format: biochemical; settings: TR-FRET; ATP 40 μM; read-out: IC50 Pim3
T3 construct: His6-labelled recombinant full-length human Pim-1, Pim-2 or Pim-3 protein; His6; made in house
Outline: as §1

EOL-1 = test: Cell viability assay (CellTiter-Blue), EOL-1; format: cell-based; settings: Homo sapiens, EOL1, read-out: EC50 EOL-1 μM (lymphoma); EOL-1 cells; cell proliferation/viability
Excerpt: (§2) The representative compounds of the invention are also screened as regards their effects on cell proliferation and viability using a variety of human tumour cell lines, which are representative of various pathological indications. These cell lines include: • Models of haematological cancers: • TF-1 (acute myelogenic leukaemia; AML M6 at the time of diagnosis); • KG-1 (AML; erythroleukaemia evolving into AML); • KG-1a (AML; sub-clone derived from immature KG-1); • EOL-1 (AML; eosinophilic leukaemia); • PL-21 (AML; M3); • ML-2 (AML; T-NHL evolving into T-ALL evolving into AML M4); • HL-60 (AML, M3); • Kasumi-1 (AML); • GDM-1 (AML); • K-562 (CML—chronic myelogenic leukaemia; blastic crisis); • JURL-MK1 (CML; blastic crisis); • DND-41 (T-ALL—-cell acute lymphoblastic leukaemia); • Jurkat (T-ALL); NALM-6 (B-ALL—B-cell ALL); • CEM (ALL; lymphosarcoma evolving into ALL); • Jeko-1 (B-NHL—B-cell non-Hodgkin lymphoma; mantle-cell lymphoma derived from a variant with large cells as a leukaemic transformation); • WSU-DLCL2 (B-NHL; large B-cell diffuse lymphoma); • RL (B-NHL; undifferentiated diffuse); • OCI-Ly10 (B-NHL); • DoHH-2 (B-NHL); • RPMI-8226 (MM—multiple myeloma); • JVM-2 (B-CLL—B-cell chronic lymphocytic leukaemia); and • JVM-3 (B-CLL) • MV4-11 (AML) • MOLM13 (AML). • Solid tumour models: • HCT-116 (bowel cancer); • HT-29 (bowel cancer); • HC-15 (bowel cancer); • H460 (lung cancer; non-small-cell lung cancer); • A375 (melanoma); • B16F10 (melanoma); • MDA-A1 (breast cancer); • MDA-MB231 (breast cancer); • MDA-MB231 adr (breast cancer); • PANC-1 (pancreatic cancer); and • PC-3 (prostate cancer).
(§3) In order to measure the viability, the tumour cells are incubated in a 96-well or 384-well format for 48, 72 or 96 hours, preferably 72 hours, with a compound of the invention at dilutions of a factor 3 with, in general, nine doses in total, the highest dose being equal to 10 μM or 30 μM. The cell viability is evaluated by adding CellTiter-Blue® (Promega, Madison, Wis., United States) for 4 hours and end-point readings are taken using a SpectraMax Genmini EM (Molecular Devices, Sunnyvale, Calif., United States). The CellTiter-Blue® cell viability assay measures the ability of the cells in culture to reduce resazurin to resorufin, the fluorescence signal intensity being directly proportional to the number of live cells.

MV4-11 = test: Cell viability assay (CellTiter-Blue), MV4-11; format: cell-based; settings: Homo sapiens; MV4-11 cells; cell proliferation/viability; read-out: IC50 MV4-11 μM (myeloma)
Excerpt: as §2, §3

MOLM-13 = test: Cell viability assay (CellTiter-Blue), MOLM-13; format: cell-based; settings: Homo sapiens; MOLM-13 cells; cell proliferation/viability; read-out: IC50 MOLM-13 μM (myeloma)
Excerpt: as §2, §3

PLK1 = PLK1 (Homo sapiens, UniProt P53350); test: PLK1 biochemical inhibition
Sequence of PLK1 (P53350 whole entry, species assumed): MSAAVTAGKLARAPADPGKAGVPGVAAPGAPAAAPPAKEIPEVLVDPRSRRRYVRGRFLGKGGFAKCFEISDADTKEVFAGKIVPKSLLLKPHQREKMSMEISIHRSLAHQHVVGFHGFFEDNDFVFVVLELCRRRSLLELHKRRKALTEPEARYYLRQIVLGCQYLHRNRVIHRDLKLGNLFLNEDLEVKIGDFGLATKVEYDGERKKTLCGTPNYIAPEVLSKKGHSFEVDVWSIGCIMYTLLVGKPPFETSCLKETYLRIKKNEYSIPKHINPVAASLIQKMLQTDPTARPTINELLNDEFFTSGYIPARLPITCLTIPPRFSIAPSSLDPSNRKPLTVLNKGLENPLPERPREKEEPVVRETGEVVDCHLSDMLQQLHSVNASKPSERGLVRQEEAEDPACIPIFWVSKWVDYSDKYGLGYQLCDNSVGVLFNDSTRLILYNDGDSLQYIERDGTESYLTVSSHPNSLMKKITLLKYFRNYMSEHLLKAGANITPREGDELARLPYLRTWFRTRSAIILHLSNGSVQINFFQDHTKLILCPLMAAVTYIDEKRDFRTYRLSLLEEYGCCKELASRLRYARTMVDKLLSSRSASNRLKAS

T2 sequence (Q9P1W9 whole entry): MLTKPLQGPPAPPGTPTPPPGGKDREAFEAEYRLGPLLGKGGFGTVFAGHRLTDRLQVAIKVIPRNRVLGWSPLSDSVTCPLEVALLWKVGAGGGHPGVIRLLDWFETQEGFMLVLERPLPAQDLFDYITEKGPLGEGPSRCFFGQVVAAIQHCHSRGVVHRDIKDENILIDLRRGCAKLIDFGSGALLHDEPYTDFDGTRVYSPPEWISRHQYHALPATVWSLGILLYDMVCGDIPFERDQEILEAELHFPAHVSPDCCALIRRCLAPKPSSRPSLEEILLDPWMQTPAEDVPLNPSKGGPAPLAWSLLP
T1 sequence (P11309 whole entry): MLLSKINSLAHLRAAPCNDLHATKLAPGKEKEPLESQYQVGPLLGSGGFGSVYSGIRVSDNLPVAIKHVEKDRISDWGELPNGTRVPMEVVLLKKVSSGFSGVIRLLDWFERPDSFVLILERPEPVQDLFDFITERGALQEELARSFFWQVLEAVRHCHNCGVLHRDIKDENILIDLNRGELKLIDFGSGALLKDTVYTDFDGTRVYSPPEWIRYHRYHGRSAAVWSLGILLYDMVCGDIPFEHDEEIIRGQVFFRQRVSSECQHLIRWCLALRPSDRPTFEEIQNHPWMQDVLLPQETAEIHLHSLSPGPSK

SMILES | IC50 (Pim-1) [nM] | IC50 (Pim-2) [nM] | IC50 (Pim-3) [nM] | IC50 (MV4-11) [nM] | IC50 (MOLM-13) [nM] | IC50 (PLK1) [nM] | EC50 (EOL-1) [nM]
Fc1cnc2[nH]c3cnc(-c4cccnc4)cc3c2c1N1CCOCC1 [Example 33, 3-fluoro-4-(morpholin-4-yl)-6-(pyrid-3-yl)-9H-pyrrolo[2,3-b:5,4-c′]-dipyridine] | 1 to 100 | 100 to 1000 | 100 to 1000 | 1000 to 5000 | 100 to 1000 |  | 100 to 1000
Fc1cnc2[nH]c3cnc(-c4cccnc4)cc3c2c1-c1ccc(OCCN2CCOCC2)cc1 [Example 99, 3-fluoro-4-{4-[2-(morpholin-4-yl)ethoxy]phenyl}-6-(pyrid-3-yl)-9H-pyrrolo[2,3-b:5,4-c′]dipyridine] | 1 to 100 | 1000 to 5000 | 100 to 1000 |  |  | 100 to 1000 | 
CCOc1cnc2[nH]c3cnc(-c4cccnc4)cc3c2c1 [Example 112, 3-ethoxy-6-(pyrid-3-yl)-9H-pyrrolo[2,3-b:5,4-c′]dipyridine] | 1 to 100 | 100 to 1000 | 1 to 100 |  |  | 100 to 1000 | 
CC(C)N1CCN(c2ccc(-c3cnc4[nH]c5cnc(-c6cccnc6)cc5c4c3)cc2)CC1 [Example 122, 3-{4-[4-(propan-2-yl)piperazin-1-yl]phenyl}-6-(pyrid-3-yl)-9H-pyrrolo[2,3-b:5,4-c′]-dipyridine] | 1 to 100 | 100 to 1000 | 1 to 100 | 1 to 100 |  | 1000 to 5000 | 1 to 100
CN1CCN(CCCn2cc(-c3cnc4[nH]c5cnc(-c6cccnc6)cc5c4c3)cn2)CC1 [Example 124, 3-{1-[3-(4-methyl-piperazin-1-yl)propyl]-1H-pyrazol-4-yl}-6-(pyrid-3-yl)-9H-pyrrolo[2,3-b:5,4-c′]-dipyridine] | 1 to 100 | 100 to 1000 | 1 to 100 |  |  | 100 to 1000 | 
CCN1CCCC1Cn1cc(-c2cnc3[nH]c4cnc(-c5cccnc5)cc4c3c2)cn1 (stereo not shown) [Example 128, 3-{1-[(1-ethylpyrrolidin-2-yl)methyl]-1H-pyrazol-4-yl}-6-(pyrid-3-yl)-9H-pyrrolo[2,3-b:5,4-c′]dipyridine] |  |  |  | 1 to 100 | 1 to 100 |  | 1 to 100
COc1cnc2[nH]c3cnc(-c4cnn(C)c4)cc3c2c1 [Example 163, 3-methoxy-6-(1-methyl-1H-pyrazol-4-yl)-9H-pyrrolo[2,3-b:5,4-c′]dipyridine] | 1 to 100 | 100 to 1000 | 1 to 100 | 100 to 1000 |  | 1000 to 5000 | 100 to 1000
COc1cnc2[nH]c3cnc(-c4cnn(CC(=O)NCCN(C)C)c4)cc3c2c1 [Example 165, N-[2-(dimethylamino)ethyl]-2-[4-(3-methoxy-9H-pyrrolo[2,3-b:5,4-c′]dipyrid-6-yl)-1H-pyrazol-1-yl]acetamide] | 100 to 1000 | > 5000 | 100 to 1000 |  |  | > 5000 | 

Further lines, with some results ahead:

IC50 (Pim-1) [nM] | IC50 (Pim-2) [nM] | IC50 (Pim-3) [nM] | IC50 (MV4-11) [nM] | IC50 (MOLM-13) [nM] | IC50 (PLK1) [nM] | SMILES | EC50 (EOL-1) [nM]
1 to 100 | 1 to 100 | 1 to 100 | 1 to 100 |  | 100 to 1000 | CN(C)CCCN(c1ccc(-c2c(F)cnc3[nH]c4cnc(-c5cccnc5)cc4c23)cc1)S(C)(=O)=O [Example 49, N-[3-(dimethylamino)propyl]-N-{4-[3-fluoro-6-(pyrid-3-yl)-9H-pyrrolo[2,3-b:5,4-c′]-dipyrid-4-yl]phenyl}methanesulfonamide] | 1 to 100
1 to 100 | 1000 to 5000 | 1 to 100 | 1000 to 5000 |  | 100 to 1000 | CCN1CCN(C(C)(C)C#Cc2c(F)cnc3[nH]c4cnc(-c5cccnc5)cc4c23)CC1 [Example 92, 4-[3-(4-ethylpiperazin-1-yl)-3-methylbut-1-yn-1-yl]-3-fluoro-6-(pyrid-3-yl)-9H-pyrrolo-[2,3-b:5,4-c′]dipyridine] | 100 to 1000
1 to 100 | 100 to 1000 | 1 to 100 |  |  | 1 to 100 | OC(COc1ccc(-c2c(F)cnc3[nH]c4cnc(-c5cccnc5)cc4c23)cc1)CN1CCOCC1 (stereo not shown) [Example 101, 1-{4-[3-fluoro-6-(pyrid-3-yl)-9H-pyrrolo[2,3-b:5,4-c′]dipyrid-4-yl]phenoxy}-3-(morpholin-4-yl)propan-2-ol] | 
1 to 100 | 1000 to 5000 | 100 to 1000 |  |  | 1000 to 5000 | CCCNc1cnc2[nH]c3cnc(-c4cccnc4)cc3c2c1 [Example 110, N-propyl-6-(pyrid-3-yl)-9H-pyrrolo[2,3-b:5,4-c′]dipyrid-3-amine] | 
1 to 100 | 1000 to 5000 | 1 to 100 |  |  | 1000 to 5000 | COCCOc1cnc2[nH]c3cnc(-c4cccnc4)cc3c2c1 [Example 113, 3-(2-methoxyethoxy)-6-(pyrid-3-yl)-9H-pyrrolo[2,3-b:5,4-c′]dipyridine] | 
1 to 100 | 1000 to 5000 | 1 to 100 |  |  | 1000 to 5000 | c1cncc(-c2cc3c(cn2)[nH]c2ncc(-c4cnn(CCN5CCOCC5)c4)cc23)c1 [Example 115, 3-{1-[2-(morpholin-4-yl)ethyl]-1H-pyrazol-4-yl}-6-(pyrid-3-yl)-9H-pyrrolo[2,3-b:5,4-c′]dipyridine] | 
1 to 100 | > 5000 | 1 to 100 |  |  | 1000 to 5000 | Cn1ccc(-c2cnc3[nH]c4cnc(-c5cccnc5)cc4c3c2)n1 [Example 116, 3-(1-methyl-1H-pyrazol-3-yl)-6-(pyrid-3-yl)-9H-pyrrolo[2,3-b:5,4-c′]dipyridine] | 
1 to 100 | 100 to 1000 | 1 to 100 |  |  | 100 to 1000 | OCc1cccc(-c2cnc3[nH]c4cnc(-c5cccnc5)cc4c3c2)c1 [Example 118, {3-[6-(pyrid-3-yl)-9H-pyrrolo-[2,3-b:5,4-c′]-dipyrid-3-yl]-phenyl}methanol] | 
1 to 100 | 1000 to 5000 | 1 to 100 |  |  | 1000 to 5000 | c1cncc(-c2cc3c(cn2)[nH]c2ncc(-c4ccc(N5CCOCC5)cc4)cc23)c1 [Example 121, 3-[4-(morpholin-4-yl)phenyl]-6-(pyrid-3-yl)-9H-pyrrolo[2,3-b:5,4-c′]-dipyridine] | 
1 to 100 | > 5000 | 100 to 1000 |  |  | 1000 to 5000 | c1cncc(-c2cc3c(cn2)[nH]c2ncc(-c4cn[nH]c4)cc23)c1 [Example 126, 3-(1H-pyrazol-4-yl)-6-(pyrid-3-yl)-9H-pyrrolo-[2,3-b:5,4-c′]-dipyridine] | 
1 to 100 | 100 to 1000 | 1 to 100 | 1 to 100 |  | 1000 to 5000 | CCN(CC)CCCn1cc(-c2cnc3[nH]c4cnc(-c5cccnc5)cc4c3c2)cn1 [Example 127, N,N-diethyl-3-{4-[6-(pyrid-3-yl)-9H-pyrrolo-[2,3-b:5,4-c′]-dipyrid-3-yl]-1H-pyrazol-1-yl}-propan-l-amine] | 1 to 100
100 to 1000 | 1000 to 5000 | 100 to 1000 |  |  | > 5000 | COc1cnc2[nH]c3cnc(-c4cnn(CCCCCNC(=O)OC(C)(C)C)c4)cc3c2c1 [Example 167, 2-methyl-2-propyl {5-[4-(3-methoxy-9H-pyrrolo[2,3-b:5,4-c′]dipyrid-6-yl)-1H-pyrazol-1-yl]pentyl}carbamate] | 
